Source: ChEMBL document CHEMBL6109049, “Fine-tuning probes for fluorescence polarization binding assays of bivalent ligands against polo-like kinase 1 using full-length protein” (Bioorg Med Chem, 2025)
Where a SMILES comes first, the peptide text is derived from it. [ ]: non-standard residue; d: D form. The star is where a group is joined. BI2536acyl = CC[C@@H]1C(=O)N(C)c2cnc(Nc3ccc(C(=O)*)cc3OC)nc2N1C1CCCC1; His(π-(CH2)8Ph) = N[C@@H](Cc1cncn1CCCCCCCCc1ccccc1)C(=O)O; pT = C[C@@H](OP(=O)(O)O)[C@H](N)C(=O)O; AEEA = NCCOCCOCC(=O)O

Columns and labels:
[1] = biological target: T1, Serine/threonine-protein kinase PLK1 (Homo sapiens, UniProt P53350); assay: Displacement of biotin-Ahx-PMQSpTPLN from myc-tagged Plk1 in cytosolic lysates (unknown origin) preincubated for 1 hr followed by biotinylated probe addition and measured after 1 hr by ELISA; type: subcellular, Cytosol
T1 sequence (P53350 whole entry): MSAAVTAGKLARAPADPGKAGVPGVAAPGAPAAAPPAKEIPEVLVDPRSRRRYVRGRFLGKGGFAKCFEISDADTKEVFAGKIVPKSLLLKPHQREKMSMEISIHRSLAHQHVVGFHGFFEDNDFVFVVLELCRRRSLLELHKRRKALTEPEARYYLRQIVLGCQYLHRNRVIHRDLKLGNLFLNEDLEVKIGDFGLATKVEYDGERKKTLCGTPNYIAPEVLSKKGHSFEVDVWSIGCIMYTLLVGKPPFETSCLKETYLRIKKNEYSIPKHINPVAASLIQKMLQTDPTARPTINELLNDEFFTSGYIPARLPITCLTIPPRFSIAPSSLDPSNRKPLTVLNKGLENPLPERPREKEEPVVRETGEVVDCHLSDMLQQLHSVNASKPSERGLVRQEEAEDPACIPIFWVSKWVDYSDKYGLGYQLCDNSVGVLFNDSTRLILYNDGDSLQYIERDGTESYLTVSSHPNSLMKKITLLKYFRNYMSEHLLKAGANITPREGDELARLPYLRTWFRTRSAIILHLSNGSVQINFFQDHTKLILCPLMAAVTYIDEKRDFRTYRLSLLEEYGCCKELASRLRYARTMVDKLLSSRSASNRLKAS

[2] = biological target: T1, Serine/threonine-protein kinase PLK1; assay: Displacement of FITC-miniPEG-FDPPLHSpTA from full length Plk1 (unknown origin) preincubated for 30 mins followed by fluorescent probe addition and measured after 30 mins by fluorescence polarization assay

SMILES | IC50 [1] | IC50 [2]
CC[C@@H]1C(=O)N(C)c2cnc(Nc3ccc(C(=O)NCCCC[C@H](NC(C)=O)C(=O)NCCOCCOCC(=O)NCCOCCOCC(=O)NCCOCCOCC(=O)NCCOCCOCC(=O)N4CCC[C@H]4C(=O)N[C@@H](CC(C)C)C(=O)N[C@@H](Cc4c[nH]cn4)C(=O)N[C@@H](CO)C(=O)N[C@H](C(N)=O)[C@@H](C)O)cc3OC)nc2N1C1CCCC1 (Ac-K(BI2536acyl)[AEEA][AEEA][AEEA][AEEA]PLHST-NH2) | Not_active | Not_active
CC[C@@H]1C(=O)N(C)c2cnc(Nc3ccc(C(=O)NCCCC[C@H](NC(C)=O)C(=O)NCCOCCOCC(=O)NCCOCCOCC(=O)NCCOCCOCC(=O)NCCOCCOCC(=O)N4CCC[C@H]4C(=O)N[C@@H](CC(C)C)C(=O)N[C@@H](Cc4cncn4CCCCCCCCc4ccccc4)C(=O)N[C@@H](CO)C(=O)N[C@H](C(N)=O)[C@@H](C)O)cc3OC)nc2N1C1CCCC1 (Ac-K(BI2536acyl)[AEEA][AEEA][AEEA][AEEA]PL[His(π-(CH2)8Ph)]ST-NH2) | Not_active | Not_active
CC[C@@H]1C(=O)N(C)c2cnc(Nc3ccc(C(=O)NCCCC[C@H](NC(C)=O)C(=O)NCCOCCOCC(=O)N[C@@H](Cc4cncn4CCCCCCCCc4ccccc4)C(=O)N[C@@H](CO)C(=O)N[C@H](C(N)=O)[C@@H](C)OP(=O)(O)O)cc3OC)nc2N1C1CCCC1 (Ac-K(BI2536acyl)[AEEA][His(π-(CH2)8Ph)]S[pT]-NH2) | Not_active | –
CC[C@@H]1C(=O)N(C)c2cnc(Nc3ccc(C(=O)NCCCC[C@H](NC(=O)COCCOCCNC(=O)COCCOCCNC(=O)COCCOCCNC(=O)COCCOCCNC(=O)[C@@H](NC(=O)[C@H](CO)NC(=O)[C@H](Cc4c[nH]cn4)NC(=O)[C@H](CC(C)C)NC(=O)[C@@H]4CCCN4C(C)=O)[C@@H](C)O)C(N)=O)cc3OC)nc2N1C1CCCC1 (Ac-PLHST[AEEA][AEEA][AEEA][AEEA]K(BI2536acyl)-NH2) | Not_active | Not_active
CC[C@@H]1C(=O)N(C)c2cnc(Nc3ccc(C(=O)NCCCC[C@H](NC(=O)COCCOCCNC(=O)COCCOCCNC(=O)COCCOCCNC(=O)COCCOCCNC(=O)[C@@H](NC(=O)[C@H](CO)NC(=O)[C@H](Cc4cncn4CCCCCCCCc4ccccc4)NC(=O)[C@H](CC(C)C)NC(=O)[C@@H]4CCCN4C(C)=O)[C@@H](C)O)C(N)=O)cc3OC)nc2N1C1CCCC1 (Ac-PL[His(π-(CH2)8Ph)]ST[AEEA][AEEA][AEEA][AEEA]K(BI2536acyl)-NH2) | Not_active | Not_active
CC[C@@H]1C(=O)N(C)c2cnc(Nc3ccc(C(=O)NCCCC[C@H](NC(=O)COCCOCCNC(=O)[C@@H](NC(=O)[C@H](CO)NC(=O)[C@H](Cc4cncn4CCCCCCCCc4ccccc4)NC(C)=O)[C@@H](C)OP(=O)(O)O)C(N)=O)cc3OC)nc2N1C1CCCC1 (Ac-[His(π-(CH2)8Ph)]S[pT][AEEA]K(BI2536acyl)-NH2) | Not_active | –
